For test [1], the system named is UMSCC47 cells. Put plainly: Cell proliferation (MTT). The test is classed as cell-based, human. As to conditions: UMSCC47/CH1 cells. How it is done:
(§1) Cell proliferation was assessed using the MTT reagent (Roche Molecular Biochemicals, Nutley, N.J.) to detect metabolic active cells. Absorbance was measured at 570 nm in the Spectra Max 190 ELISA reader (Molecular Devices, Sunnyvale, Calif.) after overnight incubation. For clonogenic survival, 200 cells per well were plated in complete growth media and allowed to grow until visible colonies were formed (14 days). Cell colonies were fixed with cold methanol, stained with 0.25% crystal violet in 25% methanol, washed, and air dried. For apoptosis, cells were harvested, washed with cold PBS, and co-stained with Annexin V and propidium iodide according to the manufacturer's protocol (ApoAlert Annexin V-FITC Apoptosis Kit; Clontech). Apoptotic cells were analyzed using BD FACS Calibur (BD Biosciences Corporation, Franklin Lakes, N.J.) at The Ohio State University Comprehensive Cancer Center Analytical Cytometry Core.

For test [2], the system named is UMSCC74A cells. The test is described as follows: Cell proliferation (MTT). Particulars: overexpression of CH1, UMSCC74A cells. The class given is cell-based, human. How it is done:
as §1

Test [3] deals with UPCI:SCC090 cells. The test is described as follows: Cell proliferation (MTT). The class given is cell-based, human. Particulars: UPCI:SCC090/CH1 cells. Here is the method: as §1
Test [4] deals with UMSCC47 cells. The test is described as follows: Clonogenic survival (crystal violet). The class given is cell-based, human. As to conditions: UMSCC47/CH1 cells. How it is done: as §1
Test [5] deals with UMSCC74A cells. The test is described as follows: Clonogenic survival (crystal violet). The class given is cell-based, human. As to conditions: overexpression of CH1, UMSCC74A cells. Here is the method: as §1
Test [6] relates to UPCI:SCC090 cells. Put plainly: Clonogenic survival (crystal violet). The class given is cell-based, human. Particulars: UPCI:SCC090/CH1 cells. Here is the method: as §1
In test [7] the test system is p53. The test is described as follows: p53 transcriptional activity (Cignal p53 Firefly/Renilla luciferase reporter). The test is classed as cell-based, human. Here is the method:
Cells were transfected with 100 ng of Cignal p53 reporter (SABiosciences, Valencia, Calif.) using Lipofectamine 2000. Cignal p53 reporter contains tandem repeats of the p53 consensus transcriptional response element. After 48 hours, cells were washed with cold PBS, lysed in passive lysis buffer (Promega), and measured for Firefly/Renilla dual luciferase activities in a luminometer using the Dual-Light System (Applied Biosystems, Foster City, Calif.). […] to control for transfection efficiency. A modification to the protocol was used for compound treatment. UMSCC47 cells were transfected with 100 ng of Cignal p53 reporter. After 24 hours, cells were treated with vehicle, CH1iB (10 μM), cis-platinum (10 μM), or combination of CH1iB (10 μM) and cis-platinum (10 μM) and measured for Firefly/Renilla dual luciferase activities 24 hours post-treatment.

The target in test [8] is T1, MDM2-p300 (Homo sapiens, UniProt Q09472).
T1 construct: Cell lysates were extracted, immunoprecipitated with anti-p300 antibody, and immunoblotted with anti-MDM2; endogenous in cells; host or cells: UMSCC74A (HPV-negative, p53 wildtype HNSCC)
Put plainly: Immunoprecipitation of MDM2-p300 association. Particulars: introduction of CH1, UMSCC74A cells. The test is classed as cell-based.

T1 sequence (Q09472 whole entry): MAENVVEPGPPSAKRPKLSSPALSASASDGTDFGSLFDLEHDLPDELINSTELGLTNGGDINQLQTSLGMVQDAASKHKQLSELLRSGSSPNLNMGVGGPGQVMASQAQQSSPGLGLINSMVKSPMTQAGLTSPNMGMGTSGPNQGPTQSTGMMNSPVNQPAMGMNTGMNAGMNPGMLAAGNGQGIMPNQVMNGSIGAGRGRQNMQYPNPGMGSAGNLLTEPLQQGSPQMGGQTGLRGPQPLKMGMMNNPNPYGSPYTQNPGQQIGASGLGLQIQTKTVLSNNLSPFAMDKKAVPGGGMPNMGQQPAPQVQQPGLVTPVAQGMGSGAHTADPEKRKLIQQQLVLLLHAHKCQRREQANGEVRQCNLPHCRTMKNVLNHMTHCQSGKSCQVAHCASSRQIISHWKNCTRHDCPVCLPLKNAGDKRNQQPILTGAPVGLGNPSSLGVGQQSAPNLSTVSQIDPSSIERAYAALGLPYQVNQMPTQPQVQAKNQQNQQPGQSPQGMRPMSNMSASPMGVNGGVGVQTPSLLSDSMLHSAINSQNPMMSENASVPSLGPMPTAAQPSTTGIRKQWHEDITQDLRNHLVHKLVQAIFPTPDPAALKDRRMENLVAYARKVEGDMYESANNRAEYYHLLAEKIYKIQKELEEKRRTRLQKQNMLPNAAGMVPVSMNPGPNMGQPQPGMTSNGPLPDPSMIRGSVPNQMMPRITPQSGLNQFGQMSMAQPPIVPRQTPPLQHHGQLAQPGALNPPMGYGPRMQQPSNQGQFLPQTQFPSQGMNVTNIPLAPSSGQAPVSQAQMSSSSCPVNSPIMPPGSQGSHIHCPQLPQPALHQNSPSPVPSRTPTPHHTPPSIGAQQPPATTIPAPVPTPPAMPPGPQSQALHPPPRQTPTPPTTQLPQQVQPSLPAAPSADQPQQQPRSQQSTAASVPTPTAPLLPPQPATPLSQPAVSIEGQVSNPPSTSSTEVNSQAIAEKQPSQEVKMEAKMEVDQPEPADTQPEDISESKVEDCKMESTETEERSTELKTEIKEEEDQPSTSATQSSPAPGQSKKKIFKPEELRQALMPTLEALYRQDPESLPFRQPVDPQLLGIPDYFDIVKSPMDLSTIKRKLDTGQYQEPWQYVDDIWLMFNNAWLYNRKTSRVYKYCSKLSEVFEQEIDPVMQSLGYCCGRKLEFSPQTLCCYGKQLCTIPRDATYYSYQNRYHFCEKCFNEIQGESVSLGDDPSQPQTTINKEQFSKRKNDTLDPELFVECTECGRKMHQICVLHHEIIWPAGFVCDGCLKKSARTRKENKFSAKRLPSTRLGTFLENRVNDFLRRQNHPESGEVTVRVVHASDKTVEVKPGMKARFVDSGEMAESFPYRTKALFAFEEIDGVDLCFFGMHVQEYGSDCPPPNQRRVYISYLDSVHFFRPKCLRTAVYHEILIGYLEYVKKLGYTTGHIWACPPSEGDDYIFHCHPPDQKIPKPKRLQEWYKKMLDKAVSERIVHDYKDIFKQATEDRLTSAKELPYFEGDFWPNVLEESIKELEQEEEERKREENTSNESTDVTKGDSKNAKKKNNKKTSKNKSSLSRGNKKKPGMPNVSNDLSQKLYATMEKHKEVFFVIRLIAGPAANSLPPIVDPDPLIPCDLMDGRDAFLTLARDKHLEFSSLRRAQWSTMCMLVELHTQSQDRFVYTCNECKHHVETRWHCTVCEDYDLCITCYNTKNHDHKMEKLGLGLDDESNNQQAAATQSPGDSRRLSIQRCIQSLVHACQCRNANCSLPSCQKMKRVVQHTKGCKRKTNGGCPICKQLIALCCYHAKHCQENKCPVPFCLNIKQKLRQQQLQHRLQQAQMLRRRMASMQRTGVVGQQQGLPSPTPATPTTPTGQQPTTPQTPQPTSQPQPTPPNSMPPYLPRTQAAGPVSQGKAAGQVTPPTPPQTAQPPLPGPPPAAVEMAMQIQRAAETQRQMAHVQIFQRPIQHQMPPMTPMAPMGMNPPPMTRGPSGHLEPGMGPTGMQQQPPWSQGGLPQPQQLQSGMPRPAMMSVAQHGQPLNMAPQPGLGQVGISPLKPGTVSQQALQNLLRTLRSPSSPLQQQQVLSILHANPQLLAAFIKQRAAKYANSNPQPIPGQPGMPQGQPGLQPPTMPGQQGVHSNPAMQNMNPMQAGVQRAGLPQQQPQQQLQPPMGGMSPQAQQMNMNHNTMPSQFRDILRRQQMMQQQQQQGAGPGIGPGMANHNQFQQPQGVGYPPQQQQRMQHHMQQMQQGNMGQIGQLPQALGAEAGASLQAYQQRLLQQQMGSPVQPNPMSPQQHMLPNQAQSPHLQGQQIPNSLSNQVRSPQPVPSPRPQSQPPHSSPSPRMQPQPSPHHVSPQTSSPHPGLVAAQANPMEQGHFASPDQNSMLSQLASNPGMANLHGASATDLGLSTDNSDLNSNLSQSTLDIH

Turning to “CH1: CH1 domain of p300 ectopically expressed from pcDNA3.1/CH1 in stably transfected HNSCC cells”, the “cell proliferation, reduced by” value is reported as 20% in test [1] and 11% in test [3]. Besides, the “cell proliferation, inhibited by” value in test [2] was found to be 48%. Moreover, the “clonogenic survival, reduced by” value in test [4] came out at 55%; in test [6], 58%. Further, the “clonogenic survival, inhibited by” value in test [5] came out at 70%. For the same substance, the “p53 transcription activity, elevated by” value in test [7] (UMSCC47/CH1 cells vs empty vector) came out at 85%; in test [7] (UMSCC74A/CH1 vs UMSCC74A/empty cells), 68%; in test [7] (UPCI:SCC090/CH1 cells vs empty vector), 50%. Moreover, in test [8], the “interaction between p300 and MDM2” value is listed as “disrupted”.

The values are drawn from patent publication US20140205681A1, “HYDROGEN-BOND SURROGATE PEPTIDES AND PEPTIDOMIMETICS FOR p53 REACTIVATION” (New York University, priority 2013, published 2014).
